Experimental data taken from US4556673A, “Use of phthalyltaurine sulfonamide derivatives in treating epilepsy and arrythmia” (priority 1980, dated 1985).
Where two headings read alike, the source gives them in different places.

Experiments:
[1] = test system: convulsions induced by electrical stimulation (maximal electroshock); assay: Maximal electroshock test (MES), 50 mA electrical stimulation; type: in vivo, mice; details: Mus musculus, ip, read-out: Anticonvulsive activity ED50, MES
From the text: (§1) The anticonvulsive effect of the compounds was studied on three types of experimental epilepsy. Convulsions were induced in mice by subcutaneous administration of pentylene tetrazole or strychnine, or by electrical stimulation with a 50 mA current (E. A. Swinyard, Assay of antiepileptic drug activity in experimental animals: Standard tests in International Enocyclopedica of Pharmacology and Therapeutics, Section 19, vol 1: Anticonvulsant Drugs, 1972). […] No sedative effect could be observed.
MES = maximal electroshock test

[2] = test system: convulsions induced by pentylene tetrazole; assay: Metrazole (pentylene tetrazole) convulsant threshold test (MET); type: in vivo, mice; details: Mus musculus, ip, read-out: Anticonvulsive activity ED50, MET
From the text: as §1
MET = metrazole (= pentylene tetrazole) convulsant threshold test.

[3] = test system: convulsions induced by strychnine; assay: Strychnine convulsant threshold test (STR); type: in vivo, mice; details: Mus musculus, ip, read-out: Anticonvulsive activity ED50, STR
From the text: as §1
STR = strychnine convulsant threshold test

[4] = test system: arrhythmia in guinea-pigs after infusion of ouabain; assay: Ouabain-induced arrhythmia in guinea-pigs; details: for Ouabain dose ± SE, inducing arrhythmia / Ouabain dose ± SE, inducing asystole: ouabain 20 μg/kg/min.
From the text: Arrhythmia was induced by K^+ deficiency and by aconitine. […] Besides the above-described in vitro tests, an in vivo method was used: the antiarrhythmic effect of the compounds was studied in quineapigs with ouabain-induced arrhythmia.

bacteria = details: cited from earlier work
[5] = test system: hexobarbiturate-induced sleep in mice; assay: Hexobarbiturate-induced sleep; type: in vivo
[6] = test system: convulsions induced by pentylene tetrazole, strychnine or electrical stimulation; assay: Anticonvulsive effect in three types of experimental epilepsy; type: in vivo, mice; details: in words
From the text: as §1

arrhythmia = assay: Antiarrhythmic effect (general statement); details: in words
From the text: Isolated perfused rat heart, prepared after the method of Langendorff, and isolated spontaneously beating rat atria (W. C. Holland & J. H. Burn, J. Brit. Med., vol 1, 1031, 1958) were used for studies of the antiarrhythmic effect of the compounds. Arrhythmia was induced by K^+ deficiency and by aconitine. […] Besides the above-described in vitro tests, an in vivo method was used: the antiarrhythmic effect of the compounds was studied in quineapigs with ouabain-induced arrhythmia.

[7] = injectable forms; cited from earlier work
[8] = mice, intraperitoneal; cited from earlier work
experimental epilepsy = details: several types of experimental epilepsy; cited from earlier work
epileptic patients = details: cited from earlier work
[9] = mice, maximal electroshock test
[10] = mice, metrazole convulsant threshold test
[11] = O-value (initial), group dosed 12 mg/kg iv
[12] = O-value (initial), group dosed 3 mg/kg iv
[13] = O-value (initial), group dosed 6 mg/kg iv

NS(=O)(=O)CCN1C(=O)c2ccccc2C1=O [2-Phthalimidoethanesulfone amide, 2-phthalimidoethane sulfonamide]
ED50 [1, 9]: 122 mg/kg
ED50 [2, 10]: > 300 mg/kg
ED50 [3]: 93 mg/kg
HR ± SE, 5 min. after adm. of test compound ([4]; 12 mg/kg iv): 330 beats/min.
Ouabain dose ± SE, inducing arrhythmia ([4]; 12 mg/kg iv): 0.17 mg/kg
Ouabain dose ± SE, inducing asystole ([4]; 12 mg/kg iv): 0.22 mg/kg
HR ± SE, O-value [4, 11]: 333 beats/min.
Antibacterial properties (bacteria): did not come up to expectations

CN(C)S(=O)(=O)CCN1C(=O)c2ccccc2C1=O [2-Phthalimidoethanesulfone dimethylamide, 2-phthalimidoethanesulfone dimethylamide]
ED50 [1, 9]: 113 mg/kg
ED50 [2, 10]: 231 mg/kg
ED50 [3]: 234 mg/kg
Antibacterial properties (bacteria): did not come up to expectations

CCNS(=O)(=O)CCN1C(=O)c2ccccc2C1=O [2-Phthalimidoethanesulfone ethylamide]
ED50 [1, 9]: 103 mg/kg
ED50 [2, 10]: 138 mg/kg
ED50 [3]: 126 mg/kg
HR ± SE, 5 min. after adm. of test compound ([4]; 3 mg/kg iv): 332 ± 16 beats/min.
Ouabain dose ± SE, inducing arrhythmia ([4]; 3 mg/kg iv): 0.175 ± 0.005 mg/kg
Ouabain dose ± SE, inducing asystole ([4]; 3 mg/kg iv): 0.318 ± 0.022 mg/kg
HR ± SE, 5 min. after adm. of test compound ([4]; 6 mg/kg iv): 270 beats/min.
Ouabain dose ± SE, inducing arrhythmia ([4]; 6 mg/kg iv): 0.15 mg/kg
Ouabain dose ± SE, inducing asystole ([4]; 6 mg/kg iv): 0.36 mg/kg
HR ± SE, O-value [4, 12]: 332 ± 22 beats/min.
HR ± SE, O-value [4, 13]: 285 beats/min.

CC(C)NS(=O)(=O)CCN1C(=O)c2ccccc2C1=O [2-Phthalimidoethanesulfone isopropylamide]
ED50 [1]: 130 mg/kg
ED50 [2]: > 300 mg/kg
ED50 [3]: 227 mg/kg
HR ± SE, 5 min. after adm. of test compound ([4]; 3 mg/kg iv): 312 ± 27 beats/min.
Ouabain dose ± SE, inducing arrhythmia ([4]; 3 mg/kg iv): 0.197 ± 0.032 mg/kg
Ouabain dose ± SE, inducing asystole ([4]; 3 mg/kg iv): 0.297 ± 0.027 mg/kg
HR ± SE, 5 min. after adm. of test compound ([4]; 6 mg/kg iv): 291 beats/min.
Ouabain dose ± SE, inducing arrhythmia ([4]; 6 mg/kg iv): 0.155 mg/kg
Ouabain dose ± SE, inducing asystole ([4]; 6 mg/kg iv): 0.29 mg/kg
HR ± SE, O-value [4, 12]: 321 ± 39 beats/min.
HR ± SE, O-value [4, 13]: 303 beats/min.

CNS(=O)(=O)CCN1C(=O)c2ccccc2C1=O [2-Phthalimidoethanesulfone methylamide]
ED50 [1, 9]: 112 mg/kg
ED50 [2, 10]: 170 mg/kg
ED50 [3]: 189 mg/kg
HR ± SE, 5 min. after adm. of test compound ([4]; 6 mg/kg iv): 255 ± 51 beats/min.
Ouabain dose ± SE, inducing arrhythmia ([4]; 6 mg/kg iv): 0.188 ± 0.017 mg/kg
Ouabain dose ± SE, inducing asystole ([4]; 6 mg/kg iv): 0.345 ± 0.02 mg/kg
HR ± SE, 5 min. after adm. of test compound ([4]; 12 mg/kg iv): 399 ± 22 beats/min.
Ouabain dose ± SE, inducing arrhythmia ([4]; 12 mg/kg iv): 0.195 ± 0.015 mg/kg
Ouabain dose ± SE, inducing asystole ([4]; 12 mg/kg iv): 0.265 ± 0.05 mg/kg
HR ± SE, O-value [4, 13]: 261 ± 45 beats/min.
HR ± SE, O-value [4, 11]: 369 ± 30 beats/min.

CCCCNS(=O)(=O)CCN1C(=O)c2ccccc2C1=O [2-Phthalimidoethanesulfone n-butylamide]
ED50 [1, 9]: 219 mg/kg
ED50 [2, 10]: > 300 mg/kg
HR ± SE, 5 min. after adm. of test compound ([4]; 3 mg/kg iv): 213 beats/min.
Ouabain dose ± SE, inducing arrhythmia ([4]; 3 mg/kg iv): 0.175 mg/kg
Ouabain dose ± SE, inducing asystole ([4]; 3 mg/kg iv): 0.34 mg/kg
HR ± SE, 5 min. after adm. of test compound ([4]; 6 mg/kg iv): 256 ± 43 beats/min.
Ouabain dose ± SE, inducing arrhythmia ([4]; 6 mg/kg iv): 0.2 ± 0 mg/kg
Ouabain dose ± SE, inducing asystole ([4]; 6 mg/kg iv): 0.382 ± 0.037 mg/kg
HR ± SE, O-value [4, 12]: 210 beats/min.
HR ± SE, O-value [4, 13]: 256 ± 19 beats/min.

CCCNS(=O)(=O)CCN1C(=O)c2ccccc2C1=O [2-Phthalimidoethanesulfone n-propylamide]
ED50 [1, 9]: 252 mg/kg
ED50 [2, 10]: > 300 mg/kg
ED50 [3]: > 300 mg/kg
HR ± SE, 5 min. after adm. of test compound ([4]; 2 mg/kg iv): 243 ± 18 beats/min.
Ouabain dose ± SE, inducing arrhythmia ([4]; 2 mg/kg iv): 0.165 ± 0.01 mg/kg
Ouabain dose ± SE, inducing asystole ([4]; 2 mg/kg iv): 0.272 ± 0.027 mg/kg
HR ± SE, 5 min. after adm. of test compound ([4]; 3 mg/kg iv): 294 ± 45 beats/min.
Ouabain dose ± SE, inducing arrhythmia ([4]; 3 mg/kg iv): 0.16 ± 0.01 mg/kg
Ouabain dose ± SE, inducing asystole ([4]; 3 mg/kg iv): 0.322 ± 0.062 mg/kg
HR ± SE, O-value ([4]; O-value (initial), group dosed 2 mg/kg iv): 229 ± 34 beats/min.
HR ± SE, O-value [4, 12]: 286 ± 55 beats/min.

O=C1c2ccccc2C(=O)N1CCS(=O)(=O)N1CCCC1 [2-Phthalimidoethanesulfone pyrrolidide]
ED50 [1, 9]: > 300 mg/kg
ED50 [2, 10]: > 300 mg/kg

CC(C)(C)NS(=O)(=O)CCN1C(=O)c2ccccc2C1=O [2-Phthalimidoethanesulfone tert-butylamide]
ED50 [1, 9]: > 300 mg/kg
ED50 [2, 10]: > 300 mg/kg

CC(=O)NS(=O)(=O)CCN1C(=O)c2ccccc2C1=O [2-Phthalimidoethanesulfonyl acetamide, 2-phthalimidoethanesulfonyl acetamide]
ED50 [1, 9]: > 300 mg/kg
ED50 [2, 10]: > 300 mg/kg
HR ± SE, 5 min. after adm. of test compound ([4]; 1 mg/kg iv): 316 ± 10 beats/min.
Ouabain dose ± SE, inducing arrhythmia ([4]; 1 mg/kg iv): 0.185 ± 0.005 mg/kg
Ouabain dose ± SE, inducing asystole ([4]; 1 mg/kg iv): 0.307 ± 0.002 mg/kg
HR ± SE, 5 min. after adm. of test compound ([4]; 3 mg/kg iv): 259 ± 10 beats/min.
Ouabain dose ± SE, inducing arrhythmia ([4]; 3 mg/kg iv): 0.215 ± 0.024 mg/kg
Ouabain dose ± SE, inducing asystole ([4]; 3 mg/kg iv): 0.355 ± 0.02 mg/kg
HR ± SE, 5 min. after adm. of test compound ([4]; 6 mg/kg iv): 334 ± 11 beats/min.
Ouabain dose ± SE, inducing arrhythmia ([4]; 6 mg/kg iv): 0.212 ± 0.016 mg/kg
Ouabain dose ± SE, inducing asystole ([4]; 6 mg/kg iv): 0.345 ± 0.026 mg/kg
HR ± SE, 5 min. after adm. of test compound ([4]; 12 mg/kg iv): 349 ± 19 beats/min.
Ouabain dose ± SE, inducing arrhythmia ([4]; 12 mg/kg iv): 0.21 ± 0.016 mg/kg
Ouabain dose ± SE, inducing asystole ([4]; 12 mg/kg iv): 0.36 ± 0.013 mg/kg
HR ± SE, O-value ([4]; O-value (initial), group dosed 1 mg/kg iv): 292 ± 1 beats/min.
HR ± SE, O-value [4, 12]: 260 ± 9 beats/min.
HR ± SE, O-value [4, 13]: 329 ± 15 beats/min.
HR ± SE, O-value [4, 11]: 329 ± 19 beats/min.
Prolongation of hexobarbiturate-induced sleep [5]: did not prolong the time of sleep
Anticonvulsive effect [6]: no anticonvulsive effect
Antiarrhythmic effect (arrhythmia): had an antiarrhythmic

CC(=O)NCCS(=O)(=O)O [N-acetyl taurine]
Penetration of the blood-brain barrier [7]: penetrate the bloodbrain barrier

CC(C)(C)C(=O)NCCS(=O)(=O)O [N-pivaloyl taurine]
Penetration of the blood-brain barrier [8]: penetrated the blood-brain barrier

CC(C)NCC(O)COc1cccc2ccccc12 (stereo not drawn) [Propranolol, reference compound]
Ouabain dose ± SE, inducing arrhythmia ([4]; 1 mg/kg iv): 0.24 ± 0.005 mg/kg
Ouabain dose ± SE, inducing asystole ([4]; 1 mg/kg iv): 0.363 ± 0.011 mg/kg
Ouabain dose ± SE, inducing arrhythmia ([4]; 3 mg/kg iv): 0.295 ± 0.035 mg/kg
Ouabain dose ± SE, inducing asystole ([4]; 3 mg/kg iv): 0.435 ± 0.024 mg/kg
Ouabain dose ± SE, inducing arrhythmia ([4]; 6 mg/kg iv): 0.269 ± 0.039 mg/kg
Ouabain dose ± SE, inducing asystole ([4]; 6 mg/kg iv): 0.418 ± 0.034 mg/kg
HR ± SE, O-value ([4]; guinea pig, in vivo, iv, 1 mg/kg): 280 ± 17 beats/min.
HR ± SE, O-value ([4]; guinea pig, in vivo, iv, 3 mg/kg): 293 ± 17 beats/min.
HR ± SE, O-value ([4]; guinea pig, in vivo, iv, 6 mg/kg): 301 ± 10 beats/min.
Bradycardia ([4]; guinea-pigs): caused bradycardia

NCCS(=O)(=O)O [Taurine, 2-aminoethanesulfonic acid]
Direct central anticonvulsive effect (experimental epilepsy): direct central anticonvulsive effect
Antiepileptic action (epileptic patients): antiepileptic action
